Earlier results, collected in patent US20040210280A1, “Plaster-type chip systems for thermodynamic control of topical dermal and transdermal systems” (BIONICS PHARMA GmbH, priority 2002, published 2004).

Tests used:
[1] = in vivo
[2] = in vivo; remark: listed apart in the source

| Compound | rate of disappearance from the subcutaneous tissue [1] | concentrations of nitroglycerine in the plasma [2] | plasma concentrations of nitroglycerine [2] |
| --- | --- | --- | --- |
| 125I-labelled insulin: previously injected 125I-labelled insulin | increased rate of disappearance | – | – |
| O=[N+]([O-])OCC(CO[N+](=O)[O-])O[N+](=O)[O-] [nitroglycerine] | – | increased by two to three times | decrease |
